This is an account of results in US11958861B2, “Spirocyclic lactams as JAK2 V617F inhibitors” (Incyte Corporation, priority 2021, dated 2024).

Structures can show the parent of a compound that is named as a salt. A value given as a limit tells only on which side of the number the result lay.

In assay [1] the target is T1, pseudo-kinase domain (JH2, amino-acids 536-812) of human Wild Type JAK2 (Homo sapiens, UniProt O60674, F794H/W659A/W777A).
T1 construct: pseudo-kinase domain (JH2, amino-acids 536-812 with 3 surface mutations W659A, W777A, F794H); purchased BPS Bioscience 79463; host or cells: baculovirus expression system
The assay is described as follows: JAK2 LanthaScreen JH2-WT Binding Assay. The note with it: 1 hour at 25° C. How it is done: Example B. JAK2 LanthaScreen JH2-WT Binding Assay
(§1) JAK2 JH2-WT binding assay utilizes pseudo-kinase domain (JH2, amino-acids 536-812 with 3 surface mutations W659A, W777A, F794H) of human Wild Type JAK2 expressed as C-terminal His-Avi-tagged, biotinylated protein in a baculovirus expression system (BPS Bioscience, Catalog #79463). The assay was conducted in black 384-well polystyrene plates in a final reaction volume of 20 μL. JAK2 JH2-WT (0.145 nM) was incubated with compounds (100 nL serially diluted in DMSO) in the presence of 50 nM Fluorescent JAK2-JH2 Tracer (MedChem Express Catalog #HY-102055) and 0.25 nM Streptavidin-Tb cryptate (Cisbio Part #610SATLB) in assay buffer (50 mM Tris, pH=7.5, 10 mM MgCl2, 0.01% Brij-35, 0.1% BSA, 1 mM EGTA, 5% Glycerol and 5 mM DTT). Non-specific binding was accessed in the presence of 2 mM ATP. After incubation for 1 hour at 25° C., LanthaScreen signals were read on a PHERAstar FS plate reader (BMG LABTECH). Data was analyzed with IDBS XLfit and GraphPad Prism 5.0 software using a four parameter dose response curve to determine IC50 for each compound.
(Time-resolved FRET reads energy transfer from a long-lived donor to a nearby acceptor.)

Assay [2] concerns the target T2, pseudo-kinase domain (JH2, amino-acids 536-812) of human V617F mutant JAK2 (Homo sapiens, UniProt O60674, F794H/V617F/W659A/W777A).
T2 construct: pseudo-kinase domain (JH2, amino-acids 536-812 with 3 surface mutations W659A, W777A, F794H); purchased BPS Bioscience 79498; host or cells: baculovirus expression system
The assay is described as follows: JAK2 LanthaScreen JH2-V617F Binding Assay. The note with it: 1 hour at 25° C. How it is done: Example C. JAK2 LanthaScreen JH2-V617F Binding Assay
as §1, with “JH2-V617F” for “JH2-WT”, “V617F mutant” for “Wild Type”, “#79498).” for “#79463).”, “JH2-V617F (0.26” for “JH2-WT (0.145”

Assay [3] concerns the target T3, catalytic domain (JH1, amino acids 808-1132) of human JAK2 (Homo sapiens, UniProt O60674).
T3 construct: catalytic domain (JH1, amino acids 808-1132) of human JAK2; His (N); purchased BPS Bioscience 40450; host or cells: baculovirus expression system
The assay is described as follows: JAK2 HTRF Enzyme Activity Assay. Format: biochemical. The settings on record: ATP 30 μM, read-out: ENZ 30UMATP. How it is done: Example D. JAK2 HTRF Enzyme Activity Assay
JAK2 enzyme activity assays utilize catalytic domain (JH1, amino acids 808-1132) of human JAK2 expressed as N-terminal His-tagged protein in a baculovirus expression system (BPS Bioscience, Catalog #40450). The assays was conducted in black 384-well polystyrene plates in a final reaction volume of 20 μL. JAK2 (0.015 nM) was incubated with compounds (100 nL serially diluted in DMSO) in the presence of ATP (30 μM or 1 mM) and 500 nM Biotin-labeled […] (SEQ ID NO.: 1) peptide (BioSource International, custom synthesis) in assay buffer (50 mM Tris, pH=7.5, 10 mM MgCl2, 0.01% Brij-35, 0.1% BSA, 1 mM EGTA, 5% Glycerol and 5 mM DTT) for 60 minutes at 25° C. The reactions were stopped by the addition of 10 μL of detection buffer (50 mM Tris, pH 7.8, 0.5 mg/mL BSA, 150 mM NaCl), supplemented with EDTA, LANCE Eu-W1024 anti-phosphotyrosine (PY20), (PerkinElmer, Catalog #AD0067) and Streptavidin SureLight APC (PerkinElmer Catalog #CR130-100), for a final concentration of 15 mM, 1.5 nM and 75 nM, respectively. HTRF signals were read after 30 minutes incubation at room temperature on a PHERAstar FS plate reader (BMG LABTECH). Data was analyzed with IDBS XLfit and GraphPad Prism 5.0 software using a four parameter dose response curve to determine IC50 for each compound.

Assay [4] has as its target T4, catalytic domain (JH1, amino acids 826-1132) of human JAK2 (Homo sapiens, UniProt O60674).
T4 construct: catalytic domain (JH1, amino acids 826-1132) of human JAK2; purchased Carna Biosciences 08-445-20N; host or cells: baculovirus expression system
The experiment in a line: JAK2 LanthaScreen JH1 Binding Assay. The note with it: 2 hours at 25° C. How it is done:
Example A. JAK2 LanthaScreen JH1 Binding Assay
JAK2 JH1 binding assay utilizes catalytic domain (JH1, amino acids 826-1132) of human JAK2 expressed as N-terminal FLAG-tagged, biotinylated protein in a baculovirus expression system (Carna Biosciences, Product #08-445-20N). The assay was conducted in black 384-well polystyrene plates in a final reaction volume of 20 μL. JAK2 JH1 (1.5 nM) was incubated with compounds (100 nL serially diluted in DMSO) in the presence of 50 nM Fluorescent JAK2-JH1 Tracer and 0.5 nM Streptavidin-Tb cryptate (Cisbio Part #610SATLB) in assay buffer (50 mM Tris, pH=7.5, 10 mM MgCl2, 0.01% Brij-35, 0.1% BSA, 1 mM EGTA, 5% Glycerol and 5 mM DTT). Non-specific binding was accessed in the presence of 2 mM ATP. After incubation for 2 hours at 25° C., LanthaScreen signals were read on a PHERAstar FS plate reader (BMG LABTECH). Data was analyzed with IDBS XLfit and GraphPad Prism 5.0 software using a four parameter dose response curve to determine IC50 for each compound.

T1 sequence (O60674 536-812 W659A/W777A/F794H): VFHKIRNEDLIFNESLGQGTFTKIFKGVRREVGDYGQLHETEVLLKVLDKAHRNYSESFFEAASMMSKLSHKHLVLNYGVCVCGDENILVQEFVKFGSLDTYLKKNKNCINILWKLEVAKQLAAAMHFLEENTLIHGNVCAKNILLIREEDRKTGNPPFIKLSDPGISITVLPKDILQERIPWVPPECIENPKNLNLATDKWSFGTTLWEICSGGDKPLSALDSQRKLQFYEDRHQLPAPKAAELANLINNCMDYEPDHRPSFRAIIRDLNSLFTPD
T4 sequence (O60674 826-1132): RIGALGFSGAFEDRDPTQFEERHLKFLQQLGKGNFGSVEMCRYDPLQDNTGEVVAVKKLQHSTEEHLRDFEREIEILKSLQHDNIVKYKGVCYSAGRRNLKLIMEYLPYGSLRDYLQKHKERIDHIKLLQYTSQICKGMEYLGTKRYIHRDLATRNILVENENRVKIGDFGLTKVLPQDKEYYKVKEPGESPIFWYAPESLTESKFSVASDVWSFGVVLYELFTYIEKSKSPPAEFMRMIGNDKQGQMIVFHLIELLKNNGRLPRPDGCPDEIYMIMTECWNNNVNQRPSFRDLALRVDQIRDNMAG
T2 sequence (O60674 536-812 V617F/W659A/W777A/F794H): as the sequence (O60674 536-812 W659A/W777A/F794H) above, with V82F counted along it
T3 sequence (O60674 808-1132): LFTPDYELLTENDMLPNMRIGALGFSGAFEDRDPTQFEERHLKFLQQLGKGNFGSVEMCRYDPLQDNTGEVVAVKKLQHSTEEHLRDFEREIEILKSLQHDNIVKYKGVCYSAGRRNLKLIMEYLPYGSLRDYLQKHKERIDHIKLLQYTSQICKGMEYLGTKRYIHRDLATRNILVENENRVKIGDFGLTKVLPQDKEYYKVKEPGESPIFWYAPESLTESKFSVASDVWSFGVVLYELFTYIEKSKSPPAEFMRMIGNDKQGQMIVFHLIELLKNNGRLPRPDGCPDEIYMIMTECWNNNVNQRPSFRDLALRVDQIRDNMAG

For `CC(CC#N)n1cc(-c2ccc(-c3c(-c4cnn(C)c4)[nH]c4ncc5c(c34)C3(CCCC3)C(=O)N5C)cc2)cn1` (racemic) [Example 14, 3-(4-(4-(6′-Methyl-2′-(1-methyl-1H-pyrazol-4-yl)-7′-oxo-6′,7′-dihydro-3′H-spiro[cyclopentane-1,8′-dipyrrolo[2,3-b:3′,2′-d]pyridin]-1′-yl)phenyl)-1H-pyrazol-1-yl)butanenitrile trifluoroacetate salt], the IC50 was not above 100 nM in assay [1], 100 to 500 nM in assay [2], more than 2500 nM in assay [3] and more than 2500 nM in assay [4].
Turning to `CN1C(=O)C2(CCN(C(C(N)=O)c3ccc(F)cc3)CC2)c2c1cnc1[nH]c(-c3cnn(C)c3)c(-c3ccccc3)c21` (racemic) [Example 26, 2-(4-Fluorophenyl)-2-(6-methyl-2-(1-methyl-1H-pyrazol-4-yl)-7-oxo-1-phenyl-6,7-dihydro-3H-spiro[dipyrrolo[2,3-b:3′,2′-d]pyridine-8,4′-piperidin]-1′-yl)acetamide, trifluoroacetate salt], the IC50 is not above 100 nM in assay [1], not above 100 nM in assay [2], not above 100 nM in assay [3] and 100 to 500 nM in assay [4].
Regarding `CN1C(=O)C2(CCN(C3(CC#N)CCC3)CC2)c2c1cnc1[nH]c(C3=CCC(C(=O)N4CCOCC4)CC3)c(-c3ccc4c(cnn4C)c3)c21` (racemic) [Example 34, 2-(1-(6-Methyl-1-(1-methyl-1H-indazol-5-yl)-2-(4-(morpholine-4-carbonyl)cyclohex-1-en-1-yl)-7-oxo-6,7-dihydro-3H-spiro[dipyrrolo[2,3-b:3′,2′-d]pyridine-8,4′-piperidin]-1′-yl)cyclobutyl)acetonitrile, trifluoroacetate salt], the IC50 in assay [1] was not above 100 nM; in assay [2], not above 100 nM; in assay [3] it was 500 to 1250 nM; in assay [4], 500 to 1250 nM.
As for `CN1C(=O)C2(CCN(C3(CC#N)CCC3)CC2)c2c1cnc1[nH]c(-c3cnn(C4CCOC4)c3)c(-c3ccc4c(cnn4C)c3)c21` (racemic) [Example 45, 2-(1-(6-Methyl-1-(1-methyl-1H-indazol-5-yl)-7-oxo-2-(1-(tetrahydrofuran-3-yl)-1H-pyrazol-4-yl)-6,7-dihydro-3H-spiro[dipyrrolo[2,3-b:3′,2′-d]pyridine-8,4′-piperidin]-1′-yl)cyclobutyl)acetonitrile, trifluoroacetate salt], the IC50 in assay [1] is not above 100 nM; in assay [2] it was not above 100 nM; in assay [3], not above 100 nM; in assay [4] it was 100 to 500 nM.
On to `CN1C(=O)[C@]2(CC[C@@H](NS(=O)(=O)C3CC3)C2)c2c1cnc1[nH]c(-c3cnn(C)c3)c(-c3ccc4c(cnn4C)c3)c21` (racemic) [Example 55, trifluoroacetate salt], for which the IC50 in assay [1] was not above 100 nM; in assay [2], not above 100 nM; in assay [3], 500 to 1250 nM; in assay [4] it was 1250 to 2500 nM.
Consider `[2H]C([2H])([2H])n1ncc2cc(-c3c(-c4cnn(C)c4)[nH]c4ncc5c(c34)[C@@]3(CC[C@H](NS(=O)(=O)C4CC4)C3)C(=O)N5C)ccc21` (racemic) [Example 56, trifluoroacetate salt], for which the IC50 in assay [1] is not above 100 nM; in assay [2], not above 100 nM; in assay [3] it was 1250 to 2500 nM; in assay [4], 1250 to 2500 nM.
Regarding `CCCC(=O)N1CCC2(CC1)CC1(C2)C(=O)N(C)c2cnc3[nH]c(C4=CCC(C(=O)N(C)C)CC4)c(-c4ccc5c(cnn5C)c4)c3c21` (racemic) [Example 63, 4-(1″-Butyryl-6-methyl-1-(1-methyl-1H-indazol-5-yl)-7-oxo-6,7-dihydro-3H-dispiro[dipyrrolo[2,3-b:3′,2′-d]pyridine-8,1′-cyclobutane-3′,4″-piperidin]-2-yl)-N,N-dimethylcyclohex-3-ene-1-carboxamide, trifluoroacetate salt], the IC50 in assay [1] was not above 100 nM; in assay [2], not above 100 nM; in assay [3] it was more than 2500 nM; in assay [4], more than 2500 nM.
